In PubChem BioAssay AID1053198 (The Scripps Research Institute Molecular Screening Center, 2014):
Activity calls are given as the source filed them. No rule for the calls is given here.

Assay: T. brucei MetRS enzyme inhibitors, late-stage follow-up, biochemical, radioactivity, assay provider, round 2 (AID 1053198)
Conditions: purified enzyme, radiolabel aminoacylation, 120 min, stronger effect = higher value

## CCN(CC)C(=O)C(=O)c1cn(CC(=O)Nc2cc(Oc3ccccc3)cc(C(F)(F)F)c2)c2ccccc12
At 10 µM
  inhibition: 98.3%
inhibition, at 1 µM
  inhibition: 95.6%

## CCN(CC)C(=O)C(=O)c1cn(CC(=O)Nc2cc(Cl)cc(C(F)(F)F)c2)c2ccccc12
At 10 µM
  inhibition: 100%
inhibition, at 1 µM
  inhibition: 95.2%

## CCN(CC)C(=O)C(=O)c1cn(CC(=O)Nc2cc(C(F)(F)F)cc(C(F)(F)F)c2)c2ccccc12
At 10 µM
  inhibition: 100%
inhibition, at 1 µM
  inhibition: 90.3%

## CCN(CC)C(=O)C(=O)c1cn(CC(=O)Nc2cc(C)cc(C(F)(F)F)c2)c2ccccc12
At 10 µM
  inhibition: 100%
inhibition, at 1 µM
  inhibition: 96.2%

## CCN(CC)C(=O)C(=O)c1cn(CC(=O)Nc2cc(Br)cc(C(F)(F)F)c2)c2ccccc12
At 10 µM
  inhibition: 101%
inhibition, at 1 µM
  inhibition: 95.8%

## CCN(CC)C(=O)C(=O)c1cn(CC(=O)Nc2cccc(C(F)(F)F)c2)c2cc(OC)ccc12
At 10 µM
  inhibition: 4.41% (inactive)
inhibition, at 1 µM
  inhibition: -4.41%
